A word on the EC50: it is the concentration giving half of the maximal effect. The IC50 is the concentration that inhibits the measured activity by half.

These results are taken from patent publication US7772425B2, “Vitamin D receptor modulators” (Eli Lilly and Company, priority 2002, dated 2010).

One series has as its system rat osteocalcin promoter. Description: OCN (osteocalcin) promoter assay in RG-15 (ROS 17/2.8) cells. In kind it is cell-based. The conditions noted are these: 48 hr treatment, luciferase. In outline: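 Rat osteoblast-like RG-15 (ROS 17/2.8) cells stably carrying a luciferase reporter driven by the osteocalcin promoter, treated with compounds in DMSO (0.01% v/v final) in medium with 2% FBS. After 48 hr at 37 °C, cells were lysed and luciferase activity measured.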

The next series concerns female DBF mice. As to the kind of experiment: Mouse hypercalcemia assay. In kind it is in vivo. The conditions noted are these: orally via gavage for 6 days; serum ionized calcium 6 hours after last dosing. The text has this:
4. The Mouse Hypercalcemia Assay
(4) Materials and Method for The Mouse Hypercalcemia Assay: […]

Series [1] has as its system KERtr cells (Human skin keratinocyte). Description: Keratinocyte proliferation assay. The series is classed as cell-based. The conditions noted are these: BrdU incorporation, read-out: Kera. Prolif. IC50.
For a further series, the system named is IL-10. Description: human IL-10 induction assay in PBMCs. In kind it is cell-based. The note with it: TPA/PHA treated human PBMCs, IL-10 immunoassay of supernatant. The text has this: The evaluation of the novel compounds of the invention for psoriasis is done using the Keratinocyte Proliferation Assay in combination with other assays that measure inhibition of IL-2 production and stimulation of IL-10 production in peripheral blood mononuclear cells (PBMCs).
6. The IL-10 Induction Assay
This is an in vitro efficacy assay for psoriasis, abscess and adhesion. Psoriasis involves both keratinocytes and immune cells. IL-10 is a unique cytokine because it is anti-inflammatory and immunosuppressive. This assay tells us whether a VDRM is able to function as an agonist in PBMCs (primary blood mononuclear cells) or not. A lower EC50 value is desirable in this assay since a compound with a lower EC50 value will be a better agonist in PBMCs.
(6) Materials and Method for human IL-10 Induction Assay:
Isolation of peripheral blood mononuclear cells (PBMCs):
• A. Collect 50 ml of human blood and dilute with media, RPMI-1640. • B. Prepare sterile tubes with ficol. • C. Add diluted blood to tubes. • D. Centrifuge. • E. Discard the top layer and collect the cells from middle layer. • F. Divide all cells into four tubes and add media. • G. Centrifuge. • H. Aspirate off media and resuspend. • I. Collect all cells • J. Centrifuge. at 1200 rpm for 10 minutes. • K. Resuspend in RPMI-1640 with 2% FBS and count cells Stimulation of PBMC: • L. Prepare TPA in DMSO. • M. Dissolve PHA in water. • N. Plate TPA/PHA treated PBMCs in well plates. • O. Incubate. Treatment: • P. Prepare all compound dilutions in plain RPMI-1640 media. • Q. Add diluted compound. • R. Incubate. Sample Collection and assay: • S. Remove all the cells by centrifugation and assay the supernatant for IL-10 by immunoassay. • 1) T. Perform IL-10 assay using anti-human IL-10 antibody coated beads, as described by the manufacturer (Linco Research Inc., St. Charles, Mo.).

[2] abbreviates: Homo sapiens, Keratinocyte, 72 h.

Where two headings read alike, the source gives them in different places.

In the case of `CCC(CC)(c1ccc(-c2nnn[nH]2)cc1)c1ccc(OCC(O)C(C)(C)C)c(C)c1` (single isomer, unassigned) [Ex. 44, 1-(4-{1-Ethyl-1-[4-(1H-tetrazol-5-yl)-phenyl]-propyl}-2-methyl-phenoxy)-3,3-dimethyl-butan-2-ol], the EC50 with rat osteocalcin promoter was found to be 0.0001 µM. Moreover, in the series with female DBF mice, the “Mouse Hypercal” value was less than 300 µg/kg/day. The IC50 in series [1] (setting [2]) was found to be 0.028 µM; with IL-10, 0.006 µM.
On to `CCC(CC)(c1ccc(OC(C)C(O)C(C)(C)C)c(C)c1)c1ccc(C(=O)NCC(=O)O)c(C)c1` (single isomer, unassigned) [Ex. 31, 3′-[4-(2-hydroxy-1,3,3-trimethylbutoxy)-3-methylphenyl]-3′-[4-(carboxymethylaminocarbonyl)-3-methylphenyl]pentane], for which the EC50 with rat osteocalcin promoter stood at 0.001 µM. Moreover, the “Mouse Hypercal” value in the series on female DBF mice was 3000 µg/kg/day. Further, the results for the IC50 (in series [1] (72 hr); with IL-10) were 0.021 µM and 0.295 µM, respectively.
As to `CCC(CC)(c1ccc(OC(C)C(O)C(C)(C)C)c(C)c1)c1ccc(C(=O)O)c(C)c1` (single isomer, unassigned) [Ex. 11, 3′-[4-(2-hydroxy-1,3,3-trimethylbutoxy)-3-methylphenyl]-3′-[4-carboxyl-3-methylphenyl]pentane], in the series with rat osteocalcin promoter, the EC50 is 0.007 µM. Moreover, the “Mouse Hypercal” value in the series on female DBF mice is 3000 µg/kg/day. The IC50 was 0.308 µM in series [1] (setting [2]) and 0.478 µM in the series on IL-10 (Homo sapiens, PBMC).
Take `CCC(CC)(c1ccc(OCC(O)C(C)(C)C)c(C)c1)c1ccc(C(=O)NCC(=O)O)c(C)c1` (single isomer, unassigned) [Ex. 25A, (4-{1-ethyl-1-[4-(2-hydroxy-3,3-dimethylbutoxy)-3-methylphenyl]-propyl}-2-methylbenzoylamino)acetic acid]: in the series with rat osteocalcin promoter, the EC50 stood at 0.0004 µM. For the same compound, the “Mouse Hypercal” value with female DBF mice was less than 300 µg/kg/day. For the same compound, the IC50 in series [1] (72 hr) worked out at 1.1 µM; with IL-10 it was 0.04 µM.
As for `CCC(CC)(c1ccc(OCC(O)C(C)(C)C)c(C)c1)c1ccc(C(=O)Nc2nnn[nH]2)c(C)c1` (single isomer, unassigned) [Ex. 26, 3′-[4-(2-hydroxy-3,3-dimethylbutoxy)-3-methylphenyl]-3′-[4-(tetrazol-5-ylaminocarbonyl)-3-methylphenyl]pentane], the EC50 in the series with rat osteocalcin promoter is 0.001 µM. For the same compound, the “Mouse Hypercal” value in the series on female DBF mice was 300 µg/kg/day. Further, the results for the IC50 (in series [1] (72 hr); in the series with IL-10) were 0.004 µM and 0.052 µM, respectively.
